Measurements taken from ChEMBL document CHEMBL5137019, “Sattahipmycin, a Hexacyclic Xanthone Produced by a Marine-Derived Streptomyces” (J Nat Prod, 2022).
In brackets after ≈: the same amount, converted by molar mass. Activity calls are given as the source filed them. No cut-off for these calls is given here.

Legend:
Plasmodium falciparum [1] = assay: Antimalarial activity against chloroquine-resistant Plasmodium falciparum K1 assessed as parasite growth inhibition and measured after 72 hrs by ELISA; assay type: functional, organism-based; details: K1, 72 h
[2] = Selectivity index, ratio of IC50 for cytotoxicity against human MRC5 cells to IC50 for antimalarial activity against […] Plasmodium falciparum FCR3; assay type: toxicity, cell-based; details: MRC5 cells versus Plasmodium falciparum FCR3, read-out: Ratio IC50
[3] = Cytotoxicity against human MRC5 cells assessed as cell growth inhibition and measured after 2 days by WST-8 assay; assay type: toxicity, cell-based
Plasmodium falciparum [4] = assay: Antimalarial activity against chloroquine-sensitive Plasmodium falciparum FCR3 assessed as parasite growth inhibition and measured after 72 hrs by ELISA; assay type: functional, organism-based; details: FCR3, 72 h
[5] = Selectivity index, ratio of IC50 for cytotoxicity against human MRC5 cells to IC50 for antimalarial activity against chloroquine-resistant Plasmodium falciparum K1; assay type: toxicity, cell-based; details: MRC5 cells versus Plasmodium falciparum K1, read-out: Ratio IC50
Bacillus subtilis [6] = assay: Antibacterial activity against Bacillus subtilis KB211 assessed as bacterial growth inhibition by paper disc method; assay type: functional
Micrococcus luteus = assay: Antibacterial activity against Micrococcus luteus KB212 at 1 to 30 ug per disc by paper disc method; assay type: functional, organism-based; details: dose 1-30 µg
[7] = test system: Xanthomonas campestris pv. oryzae; assay: Antibacterial activity against Xanthomonas campestris pv. oryzae KB88 assessed as bacterial growth inhibition by paper disc method; assay type: functional
Escherichia coli [8] = assay: Antibiofilm activity against Escherichia coli NBRC 3972 assessed as inhibition of biofilm formation at 15 to 60 ug/ml incubated overnight by crystal violet staining based ELISA; assay type: functional; details: dose 15-60 µg/ml; at 15 to 60 µg/mL
Escherichia coli [9] = assay: Bactericidal activity against Escherichia coli NBRC 3972; assay type: functional
Staphylococcus aureus [10] = assay: Antibacterial activity against Staphylococcus aureus KB210 assessed as bacterial growth inhibition by paper disc method; assay type: functional
Escherichia coli [11] = assay: Antibacterial activity against Escherichia coli NBRC 3972 assessed as bacterial growth inhibition by paper disc method; assay type: functional
Staphylococcus aureus [12] = assay: Antibacterial activity against Staphylococcus aureus KB210 at 1 to 30 ug per disc by paper disc method; assay type: functional, organism-based; details: dose 1-30 µg
NCI-H1299 = assay: Cytotoxicity against human NCI-H1299 cells assessed as cell growth inhibition and measured after 2 days by WST-8 assay; assay type: functional, cell-based; details: NCI-H1299, 48 h
A549 = assay: Cytotoxicity against human A549 cells assessed as cell growth inhibition and measured after 2 days by WST-8 assay; assay type: functional, cell-based; details: A549, 48 h
PANC-1 = assay: Cytotoxicity against human PANC-1 cells assessed as cell growth inhibition and measured after 2 days by WST-8 assay; assay type: functional, cell-based; details: PANC-1, 48 h
HeLa S3 = assay: Cytotoxicity against human HeLa S3 cells assessed as cell growth inhibition and measured after 2 days by WST-8 assay; assay type: functional, cell-based; details: HeLa S3, 48 h
[13] = test system: Xanthomonas campestris pv. oryzae; assay: Antibacterial activity against Xanthomonas campestris pv. oryzae KB88 at 1 to 30 ug per disc by paper disc method; assay type: functional, organism-based; details: dose 1-30 µg
HT-29 = assay: Cytotoxicity against human HT-29 cells assessed as cell growth inhibition and measured after 2 days by WST-8 assay; assay type: functional, cell-based; details: HT-29, 48 h
Kocuria rhizophila = assay: Antibacterial activity against Kocuria rhizophila KB212 assessed as bacterial growth inhibition by paper disc method; assay type: functional
Bacillus subtilis [14] = assay: Antibacterial activity against Bacillus subtilis KB211 at 1 to 30 ug paper disc by paper disc method; assay type: functional, organism-based; details: dose 1-30 µg

## C[C@@H]1CC[C@H]2[C@@H](C)C(=O)O[C@@H]3O[C@@]4(C)CC[C@@H]1[C@]32OO4 [ARTEMISININ]
Plasmodium falciparum [1]
  IC50: 0.03 µM
[2]
  selectivity ratio: 2030
[3]
  IC50 at 2 days: 50.3 µM
Plasmodium falciparum [4]
  IC50: 0.02 µM
[5]
  selectivity ratio: 1580

## COc1c2c(c(O)c3c(=O)c4cccc(O)c4oc13)-c1c(cc3cc(C)[nH]c(=O)c3c1O)C[C@H]2O
Bacillus subtilis [6]
  MIC: 0.25 µg/mL (≈ 0.528 µM)
Plasmodium falciparum [1]
  IC50: 0.27 µM
[2]
  selectivity ratio: 0.85
Micrococcus luteus
  Activity: Active
[7]
  MIC: 0.25 µg/mL (≈ 0.528 µM)
Escherichia coli [8]
  inhibition (INH): 50%
Escherichia coli [9]
  Activity: >250 µg/mL
Staphylococcus aureus [10]
  MIC: 0.25 µg/mL (≈ 0.528 µM)
Escherichia coli [11]
  MIC: > 250 µg/mL
Staphylococcus aureus [12]
  Activity: Active
NCI-H1299
  IC50: 10.6 µM
A549
  IC50: 1.86 µM
PANC-1
  IC50: 12.9 µM
HeLa S3
  IC50: 2.18 µM
[3]
  IC50 at 2 days: 0.17 µM
Plasmodium falciparum [4]
  IC50: 0.2 µM
[13]
  Activity: Active
HT-29
  IC50: 1.9 µM
Kocuria rhizophila
  MIC: 0.25 µg/mL (≈ 0.528 µM)
[5]
  selectivity ratio: 0.62
Bacillus subtilis [14]
  Activity: Active

## CCN(CC)CCCC(C)Nc1ccnc2cc(Cl)ccc12 (configuration not stated) [CHLOROQUINE]
[3]
  IC50 at 2 days: 58.2 µM
